Measurements as given in PMC9917023, “Stabilization of Monomeric Tau Protein by All D-Enantiomeric Peptide Ligands as Therapeutic Strategy for Alzheimer’s Disease and Other Tauopathies” (International Journal of Molecular Sciences, 2023).
Non-standard residues stand in square brackets, D forms with d. Residues, ends and D or L forms follow the SMILES beside them.

Experiments:
[1] = system: brain endothelial cells (RBMVEC) and astroglial cells (CTX TNA2)
Protocol: Each peptide was tested at different time points in triplicate next to an unseeded negative control (“Empty”) and quantitatively analyzed via HPLC using a calibration curve to determine the concentration of the peptide in the receiving chamber at each point in time (Figure 11). From these values, the volume of each chamber, and the respective time, a Papp permeability coefficient in cm²/s was calculated for each substance to represent its ability to cross the in vitro blood–brain barrier model.
An amount equaling 1 mg/mL TF2D-5 (A) or TF2D-5a (B) was added to an insert that was seeded and covered with endothelial and astroglial cells, representing the in vitro blood–brain barrier, or an empty insert serving as a control. After different time points, samples were taken and analyzed by quantitative HPLC analysis. Data given as mean ± SD out of three independent replicates.
Brain endothelial cells from rats and astroglial cells were used to cultivate the different sides of the porous membrane.
Brain endothelial cells from rats (RBMVEC, Cell Applications Inc., R840-05a, San Diego, CA, USA) were cultivated in Complete Classic medium (Cell Systems, Kirkland, WA, USA, 4Z0-500), and rat astroglial cells (CTX TNA2, ATCC, CRL-2006) were cultivated in Complete Classic medium (Cell Systems, Kirkland, WA, USA, 4Z0-500). The cells were allowed to grow in a humidified incubator with 5% CO2 at 37 °C and a maximum of 20 passages. The cells were passaged every 3 to 5 days, according to their confluence.
In order to set up the in vitro BBB model, the astroglial cells were seeded at a density of 600.000 cells/cm² on the outer (basolateral, “brain”) side of an insert with a porous membrane (Corning Transwell polycarbonate membrane cell culture inserts, CLS3415, 3 µM pore size) and allowed to grow/adhere overnight in the Complete Classic medium. The next day, brain endothelial cells were seeded at a density of 600.000 cells/cm² on the inner side (apical, “blood”) of the corresponding membrane. The seeded inserts were then cultivated to grow to full confluence over a period of 5 to 7 days, with the medium renewed daily. […] Prior to this, TEER (transendothelial electrical resistance values) were measured in each well to ensure the integrity of the in vitro BBB. At 0, 30, 60, 90, 120, 150, 180, and 240 min, 50 µL of the medium out of the outer chamber was taken and analyzed by HPLC. This 50 µL would then be replaced by the same amount of fresh serum-free medium to keep the fluid levels equal across both chambers. This slight dilution was factored into the following calculations. Furthermore, a dilution series of each reagent was analyzed alongside the samples as a calibration to quantify the analysis. […] The Papp values were calculated as follows (higher is better): Papp =(V/A∗C)∗(Dc/Dt)

[2] = target: T1, monomeric full-length tau 441 (Homo sapiens, UniProt P10636); experiment: SPR measurement (Biacore T200, multicycle); format: binding; settings: compound immobilized on CM5 chip, tau as analyte, 1:1 fit, dissociation time 60 min; read-out: dissociation rate (kd)
T1 construct: The gene for the human full-length tau was prepared on a plasmid called pET28a(+)-tau2N4R; made in house; host or cells: E. coli pRare
T1 sequence (P10636 1-441 isoform P10636-8): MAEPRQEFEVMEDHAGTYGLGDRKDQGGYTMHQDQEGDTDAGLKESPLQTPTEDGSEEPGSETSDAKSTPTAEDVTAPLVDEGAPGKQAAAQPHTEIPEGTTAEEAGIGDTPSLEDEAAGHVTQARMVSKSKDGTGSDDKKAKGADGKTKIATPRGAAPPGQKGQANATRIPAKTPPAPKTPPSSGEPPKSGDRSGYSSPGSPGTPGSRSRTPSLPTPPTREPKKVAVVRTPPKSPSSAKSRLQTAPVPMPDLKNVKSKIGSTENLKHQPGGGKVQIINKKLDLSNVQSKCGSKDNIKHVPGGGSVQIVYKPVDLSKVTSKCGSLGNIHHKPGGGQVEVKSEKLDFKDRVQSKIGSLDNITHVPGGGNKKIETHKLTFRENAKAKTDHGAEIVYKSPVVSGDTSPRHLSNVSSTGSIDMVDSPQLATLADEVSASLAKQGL
Protocol: Figure 8 SPR measurements of TF2D-5 and TF2D-5a with monomeric full-length tau 441 and tau repeat region 3. […] The concentration of tau during the measurement ranged from 3.125 nM to 25 nM. […] Tau was used in concentrations ranging from 31.25 nM to 500 nM. SPR measurements of A and B were recorded on a T200 Biacore instrument, the corresponding compound was immobilized on a CM5 chip from Cytiva while monomeric tau served as analyte. Tests were performed with TBS pH 7.4, 0.05% Tween20 and 10 µM DTT as running buffer. Fit calculation was completed with the internal evaluation software of the T200 Biacore. A 1:1 model was used for both fits. […] The concentrations for the single cycle measurement ranged from 3.125 nM to 100 nM. Measurements of C were performed on a Biacore 8K using a CM5 chip from Cytiva. TF2D-5a was immobilized on the chip while the R3 region of tau was used as analyte. PBS pH 7.4 with 0.05% Tween20 as used as running buffer. Fit calculation was performed using the Biacore insight evaluation software and a 1:1 model. […]
Measurements of TF2D-5 and TF2D-5a against full-length tau 441 were performed on a Biacore T200 (Biacore, GE Healthcare, Uppsala, Sweden) using multicycle experiments. […] The data were evaluated using the Biacore T200 Evaluation Software 3.2 using a 1:1 fit (RI = 0).

SH-SY5Y cells = experiment: Cell-viability assay (MTT); format: cell-based, human; settings: 0.2, 1 and 5 µM, 24 h, 37 °C
Protocol: Human […] SH-SY5Y cells and rat pheochromocytoma PC12 cells were cultivated in RPMI medium with 10% fetal bovine serum and 5% horse serum. On a collagen-coated 96-well plate (Gibco, Life Technology, Carlsbad, CA, USA), 10.000 cells were seeded per well. The plate was incubated for 24 h at 37 °C and 5% CO2. TF2D-5 and TF2D-5a were added to the cells at concentrations of 0.2 µM, 1 µM, and 5 µM, respectively. As a positive control, 0.1% Trion X-100 was used. A medium was used as a negative control. The samples were incubated for a further 24 h at 37 °C and 5% CO2. Cell viability was determined by using the Cell Proliferation Kit 1 (MTT) (Roche, Basel, Switzerland) according to the instruction manual. The absorbance of generated formazan products was measured using a CLARIOstar plate reader (BMG, Offenburg, Germany). Absorption at 570 nm was measured and referenced against absorbance at 660 nm.
Figure S3. Peptide toxicity assay for different concentrations of TF2D -5 and TF2D-5a.
For this assay the compounds TF2D -5 and TF2D-5a were incubated on SHSY5Y and PC12 cells for 24 h at 37 °C and 5 % CO2. The “Cell Proliferation Kit 1” from Roche was used for the MTT assay. RPMI with 10 % HS and 5 % FBS was used as cell medium. As […] 0.1 % Triton X100 was used. For both assays no negative effect on the cell viability could be observed by addition of both compounds. […]

| SMILES | Papp permeability coefficient [1] [nm/s] | koff [2] [s⁻¹] | toxicity (cell viability, MTT) (SH-SY5Y cells) |
| --- | --- | --- | --- |
| CC[C@@H](C)[C@@H](NC(=O)[C@@H](Cc1c[nH]cn1)NC(=O)CNC(=O)CNC(=O)[C@H]1CCCN1C(=O)[C@H](NC(=O)[C@@H](CCCCN)NC(=O)[C@@H](Cc1ccccc1)NC(=O)[C@@H](CC(C)C)NC(=O)[C@H](NC(=O)[C@@H](CCC(N)=O)NC(=O)[C@@H](Cc1ccc(O)cc1)NC(=O)CNC(=O)CNC(=O)[C@H](N)CC(=O)O)[C@H](C)CC)[C@H](C)CC)C(=O)N[C@H](Cc1c[nH]cn1)C(N)=O [TF2D-5] (H-[dD]GG[dY][dQ][dI][dL][dF][dK][dI][dP]GG[dH][dI][dH]-NH2) | 36 | 1.9e-05 | not toxic |
| CC[C@@H](C)[C@@H](NC(=O)[C@@H](Cc1c[nH]cn1)NC(=O)CNC(=O)CNC(=O)[C@H]1CCCN1C(=O)[C@H](NC(=O)[C@@H](CCCCN)NC(=O)[C@@H](Cc1ccccc1)NC(=O)[C@@H](CC(C)C)NC(=O)[C@H](NC(=O)[C@@H](CCC(N)=O)NC(=O)[C@@H](Cc1ccc(O)cc1)NC(=O)CNC(=O)CNC(=O)[C@H](N)CC(=O)O)[C@H](C)CC)[C@H](C)CC)C(=O)N[C@H](Cc1c[nH]cn1)C(=O)N[C@H](CCCNC(=N)N)C(=O)N[C@H](CCCNC(=N)N)C(=O)N[C@H](CCCNC(=N)N)C(=O)N[C@H](CCCNC(=N)N)C(=O)N[C@H](CCCNC(=N)N)C(N)=O [TF2D-5a] (H-[dD]GG[dY][dQ][dI][dL][dF][dK][dI][dP]GG[dH][dI][dH][dR][dR][dR][dR][dR]-NH2) | 480 | 4.3e-05 | not toxic |
